# In ChEMBL document CHEMBL1201862, “PubChem BioAssay data set” (2004):
# Activity calls are given as the source filed them.
# Experiments:
# [1] = LGR2 antagonists, dose response, cell-based, HEK293, CRE-luciferase reporter, cherry pick, set 2 (AID 743343); type: functional;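 note: transfected cells were stimulated with diluted bursicon conditioned medium after compound addition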
# [2] = MC4R antagonists, dose response, counter-screen for LGR2 antagonist project, cell-based, plate reader, cherry pick (AID 743444); type: functional;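 note: transfected HEK 293 cells stimulated with alpha-MSH peptide; potency of inhibitors of the alpha-MSH evoked signal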
# Cytochrome P450 1A2 = biological target: T1, Cytochrome P450 1A2 (Homo sapiens, UniProt P05177);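 note: PubChem cytochrome P450 panel assay, CYP1A2 panel member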
# T1 sequence (P05177 whole entry): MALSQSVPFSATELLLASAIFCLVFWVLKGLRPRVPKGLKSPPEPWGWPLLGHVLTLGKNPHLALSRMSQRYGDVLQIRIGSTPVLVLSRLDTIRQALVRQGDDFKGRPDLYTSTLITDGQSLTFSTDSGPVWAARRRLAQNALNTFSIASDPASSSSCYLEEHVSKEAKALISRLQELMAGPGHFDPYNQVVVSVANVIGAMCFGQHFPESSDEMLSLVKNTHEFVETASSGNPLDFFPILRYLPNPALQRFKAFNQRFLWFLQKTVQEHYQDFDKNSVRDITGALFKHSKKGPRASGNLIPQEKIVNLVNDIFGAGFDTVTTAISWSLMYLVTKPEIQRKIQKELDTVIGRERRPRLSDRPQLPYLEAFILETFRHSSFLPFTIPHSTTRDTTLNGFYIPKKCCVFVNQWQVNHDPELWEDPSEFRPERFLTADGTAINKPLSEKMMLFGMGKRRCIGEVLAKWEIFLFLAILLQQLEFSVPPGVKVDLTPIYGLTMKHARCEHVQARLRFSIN
# [3] = biological target: T2, Short transient receptor potential channel 4 (Mus musculus, UniProt Q9QUQ5); experiment: mouse TRPC4 channel inhibitors, dose response, cell-based, HEK293 TRPC4/mu-opioid, Fluo-4 calcium (AID 434942); type: functional;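 note: potency of inhibitors blocking the TRPC4 calcium response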
# T2 sequence (Q9QUQ5 whole entry): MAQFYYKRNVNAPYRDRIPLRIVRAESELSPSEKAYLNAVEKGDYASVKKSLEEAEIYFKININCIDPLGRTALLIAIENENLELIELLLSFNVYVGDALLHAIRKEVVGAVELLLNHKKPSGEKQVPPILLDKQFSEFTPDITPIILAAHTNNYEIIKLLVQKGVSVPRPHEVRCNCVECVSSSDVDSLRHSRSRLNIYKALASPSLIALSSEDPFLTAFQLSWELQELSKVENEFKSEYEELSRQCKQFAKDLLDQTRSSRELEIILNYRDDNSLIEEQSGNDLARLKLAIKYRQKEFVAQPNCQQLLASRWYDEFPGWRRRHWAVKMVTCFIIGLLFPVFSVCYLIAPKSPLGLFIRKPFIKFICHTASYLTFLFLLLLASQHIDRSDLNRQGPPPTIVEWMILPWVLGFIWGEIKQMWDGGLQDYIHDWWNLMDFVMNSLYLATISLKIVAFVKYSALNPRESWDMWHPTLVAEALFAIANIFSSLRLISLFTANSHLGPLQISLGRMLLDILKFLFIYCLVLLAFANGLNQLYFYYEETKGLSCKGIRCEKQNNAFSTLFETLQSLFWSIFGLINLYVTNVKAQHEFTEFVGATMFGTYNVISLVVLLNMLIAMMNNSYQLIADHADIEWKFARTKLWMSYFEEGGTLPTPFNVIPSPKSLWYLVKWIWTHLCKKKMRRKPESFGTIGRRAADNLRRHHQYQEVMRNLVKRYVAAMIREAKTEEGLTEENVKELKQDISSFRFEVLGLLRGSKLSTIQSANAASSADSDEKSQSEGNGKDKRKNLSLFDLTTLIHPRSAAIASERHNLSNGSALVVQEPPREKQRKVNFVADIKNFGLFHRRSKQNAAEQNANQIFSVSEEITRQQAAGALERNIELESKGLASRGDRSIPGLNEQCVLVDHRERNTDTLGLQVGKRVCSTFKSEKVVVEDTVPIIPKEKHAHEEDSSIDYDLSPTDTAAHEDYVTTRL
# [4] = Luminescence Cell-Based Dose Response HTS to Identify Inhibitors of 5'UTR Stem-Loop Driven Prion Protein mRNA Translation in H4 Neuroglioblastoma Cells. [Related pubchem assays: 1827 (Project Summary), 1813 (Primary HTS)]; type: functional
# [5] = inhibitors of firefly luciferase expression or activity, dose response, H4 neuroglioma cells, luminescence (AID 1990); type: functional, cell-based
# [6] = inhibitors of SNCA 5'UTR-driven reporter translation, confirmation, H4 neuroglioma cells, luminescence (AID 1988); type: functional, cell-based
# [7] = HepG2 cell cytotoxicity, dose response, cytotoxicity control for Shn3 inhibitor project, CellTiter-Glo, cherry-picked (AID 624134); type: functional, cell-based
# [8] = cytotoxicity toward NIH3T3 fibroblasts, dose response, counter-screen, cell-based, ATP luminescence, mouse fibroblasts (AID 2010); type: functional;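 note: cells exposed to compound for about 90 hours before reading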
# [9] = inhibitors of intracellular T. cruzi replication, confirmation, NIH3T3 host cells, beta-gal luminescence (AID 2044); type: functional, cell-based;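 note: intracellular parasites grown in NIH/3T3 mouse fibroblasts as host cells; luminescent beta-galactosidase reporter signal from transgenic T. cruzi replicating inside host cells; inhibitors lower the luminescence signal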
# [10] = Shn3 3'UTR reporter inhibitors, dose response, cell-based, Clone20 osteoblasts, firefly luciferase, cherry-picked (AID 624132); type: functional;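 note: firefly luciferase luminescence from reporter carrying the Shn3 3'UTR in osteoblasts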
# [11] = control 3'UTR Renilla luciferase suppression, dose response, counter-screen for Shn3 inhibitor project, cell-based, Clone20-Shn3RL, cherry-picked (AID 624133); type: functional
# [12] = biological target: T3, Rac GTPase-activating protein 1 (Homo sapiens, UniProt Q9H0H5); experiment: MgcRacGAP GTPase-activating activity inhibitors, confirmation, biochemical, ADP Hunter fluorescence, primary and confirmatory (AID 624330); type: functional
# T3 sequence (Q9H0H5 whole entry): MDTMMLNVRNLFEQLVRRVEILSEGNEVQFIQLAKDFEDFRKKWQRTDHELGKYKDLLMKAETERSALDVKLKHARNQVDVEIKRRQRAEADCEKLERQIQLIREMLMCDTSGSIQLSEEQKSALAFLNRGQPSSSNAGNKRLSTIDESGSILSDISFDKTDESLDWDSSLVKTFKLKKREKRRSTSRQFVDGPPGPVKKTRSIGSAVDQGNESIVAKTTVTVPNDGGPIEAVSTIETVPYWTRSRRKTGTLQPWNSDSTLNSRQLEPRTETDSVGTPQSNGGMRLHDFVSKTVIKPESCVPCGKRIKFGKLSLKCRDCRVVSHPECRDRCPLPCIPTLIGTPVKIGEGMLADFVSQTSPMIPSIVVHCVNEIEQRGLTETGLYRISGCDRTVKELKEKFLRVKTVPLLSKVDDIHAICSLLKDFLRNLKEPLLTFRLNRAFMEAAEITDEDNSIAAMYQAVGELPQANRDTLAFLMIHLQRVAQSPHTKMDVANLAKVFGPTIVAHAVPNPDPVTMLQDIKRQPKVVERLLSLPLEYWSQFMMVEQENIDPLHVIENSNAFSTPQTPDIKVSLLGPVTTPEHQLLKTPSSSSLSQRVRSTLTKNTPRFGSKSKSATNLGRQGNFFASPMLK
# Cytochrome P450 2C19 = Cytochrome P450 2C19 (Homo sapiens, UniProt P33261); experiment: Cytochrome panel assay with activity outcomes. Panel member name: p450-cyp2c19 Compounds with AC50 equal or less than 10 uM are considered active; type: functional; settings: read-out: AC50
# Cytochrome P450 2C9 = Cytochrome P450 2C9 (Homo sapiens, UniProt P11712)
# Cytochrome P450 3A4 = Cytochrome P450 3A4 (Homo sapiens, UniProt P08684);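 note: CYP3A4 tested as one member of a cytochrome P450 panel screen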
# [13] = Luminescence Cell-Based Dose Confirmation HTS to Identify Inhibitors of Platelet Dense Granule Release. [Related pubchem assays: 1663 (Primary HTS), 1678 (Summary of Project)]; type: functional
# [14] = Luminescence Cell-Based Dose Response HTS to Identify Activators of Luciferase Translation or Activity in H4 […] Cells. [Related pubchem assays: 1829 (Project Summary), 1814 (Primary HTS)]; type: functional
# [15] = biological target: Luciferin 4-monooxygenase (Photinus pyralis, UniProt P08659); experiment: firefly luciferase enzyme inhibitors, dose response, biochemical, luminescence (AID 1891)
# [16] = THP-1 cell cytotoxicity, dose response, cytotoxicity control for non-replicating M. tuberculosis project (AID 489025); type: functional
# Protein skinhead-1 = biological target: T4, Protein skinhead-1 (Caenorhabditis elegans, UniProt P34707); type: functional
# T4 sequence (P34707 whole entry): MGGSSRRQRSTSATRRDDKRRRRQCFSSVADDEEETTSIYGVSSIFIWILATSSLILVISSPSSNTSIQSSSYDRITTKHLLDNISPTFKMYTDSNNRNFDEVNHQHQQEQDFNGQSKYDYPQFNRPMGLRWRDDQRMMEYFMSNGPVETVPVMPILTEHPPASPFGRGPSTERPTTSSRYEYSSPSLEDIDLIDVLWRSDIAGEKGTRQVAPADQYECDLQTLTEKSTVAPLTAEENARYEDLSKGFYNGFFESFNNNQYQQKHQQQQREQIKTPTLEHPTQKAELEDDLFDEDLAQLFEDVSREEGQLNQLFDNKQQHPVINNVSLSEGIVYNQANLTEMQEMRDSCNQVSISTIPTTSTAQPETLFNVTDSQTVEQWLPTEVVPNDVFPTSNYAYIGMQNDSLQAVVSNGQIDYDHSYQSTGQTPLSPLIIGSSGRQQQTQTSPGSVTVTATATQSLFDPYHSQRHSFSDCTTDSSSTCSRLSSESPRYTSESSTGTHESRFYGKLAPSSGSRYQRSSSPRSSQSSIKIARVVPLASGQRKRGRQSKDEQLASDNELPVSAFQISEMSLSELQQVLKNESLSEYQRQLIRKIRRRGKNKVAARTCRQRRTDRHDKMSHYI
# Cytochrome P450 2D6 = Cytochrome P450 2D6 (Homo sapiens, UniProt P10635);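 note: CYP2D6 member of a cytochrome P450 panel assay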
# INS1 = experiment: beta cell apoptosis inhibitors, cytokine rescue, dose response, luminescence, retest (AID 449756); type: functional, cell-based; settings: Rattus norvegicus;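 note: cell death triggered by IL-1 beta plus TNF-alpha plus IFN-gamma mixture; protective hits raise ATP signal compared with cytokine alone wells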
# [17] = biological target: T5, Ubiquitin-conjugating enzyme E2 N (Homo sapiens, UniProt P61088); type: functional;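 note: Dose-response confirmation in a TR-FRET assay detecting UBC13-driven polyubiquitin chain formation, inhibition measured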
# T5 sequence (P61088 whole entry): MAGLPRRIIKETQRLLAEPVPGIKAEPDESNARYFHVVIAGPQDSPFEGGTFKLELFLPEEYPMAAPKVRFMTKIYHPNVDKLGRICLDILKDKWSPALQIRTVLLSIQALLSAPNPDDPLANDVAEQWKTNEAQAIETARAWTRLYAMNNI
# [18] = P. falciparum Dd2 growth inhibitors, dose response, SYBR Green, cherry-picked samples (AID 1159567); type: functional, cell-based
# cells = type: functional
# [19] = microbe, parasite or virus in culture; type: functional; settings: Mycobacterium tuberculosis
# Sequence of Cytochrome P450 2C19 (P33261 whole entry): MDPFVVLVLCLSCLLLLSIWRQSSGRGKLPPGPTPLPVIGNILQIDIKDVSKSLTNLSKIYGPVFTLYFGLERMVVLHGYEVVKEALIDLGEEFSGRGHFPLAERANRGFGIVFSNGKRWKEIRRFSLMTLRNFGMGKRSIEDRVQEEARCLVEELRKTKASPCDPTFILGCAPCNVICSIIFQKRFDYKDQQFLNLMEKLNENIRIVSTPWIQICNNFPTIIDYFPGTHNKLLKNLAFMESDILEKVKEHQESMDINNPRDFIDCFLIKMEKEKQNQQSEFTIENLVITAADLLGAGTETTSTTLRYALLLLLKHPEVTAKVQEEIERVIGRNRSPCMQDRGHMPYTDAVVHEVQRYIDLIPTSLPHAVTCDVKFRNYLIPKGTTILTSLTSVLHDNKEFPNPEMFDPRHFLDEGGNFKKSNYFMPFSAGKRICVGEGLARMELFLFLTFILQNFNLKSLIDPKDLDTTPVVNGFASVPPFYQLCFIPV
# Sequence of Cytochrome P450 3A4 (P08684 whole entry): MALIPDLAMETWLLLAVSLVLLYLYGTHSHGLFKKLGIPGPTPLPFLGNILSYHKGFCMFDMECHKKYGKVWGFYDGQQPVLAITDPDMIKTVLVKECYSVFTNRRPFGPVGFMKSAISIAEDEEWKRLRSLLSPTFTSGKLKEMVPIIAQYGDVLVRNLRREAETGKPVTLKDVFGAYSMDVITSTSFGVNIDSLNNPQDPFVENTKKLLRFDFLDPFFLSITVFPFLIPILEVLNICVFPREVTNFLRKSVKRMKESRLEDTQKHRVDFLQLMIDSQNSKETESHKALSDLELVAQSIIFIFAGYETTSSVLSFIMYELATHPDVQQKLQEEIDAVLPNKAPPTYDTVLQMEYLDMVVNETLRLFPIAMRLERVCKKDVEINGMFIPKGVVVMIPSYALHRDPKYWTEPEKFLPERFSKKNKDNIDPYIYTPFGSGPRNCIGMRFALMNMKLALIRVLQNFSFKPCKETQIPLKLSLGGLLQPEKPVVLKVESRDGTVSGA
# Sequence of Cytochrome P450 2C9 (P11712 whole entry): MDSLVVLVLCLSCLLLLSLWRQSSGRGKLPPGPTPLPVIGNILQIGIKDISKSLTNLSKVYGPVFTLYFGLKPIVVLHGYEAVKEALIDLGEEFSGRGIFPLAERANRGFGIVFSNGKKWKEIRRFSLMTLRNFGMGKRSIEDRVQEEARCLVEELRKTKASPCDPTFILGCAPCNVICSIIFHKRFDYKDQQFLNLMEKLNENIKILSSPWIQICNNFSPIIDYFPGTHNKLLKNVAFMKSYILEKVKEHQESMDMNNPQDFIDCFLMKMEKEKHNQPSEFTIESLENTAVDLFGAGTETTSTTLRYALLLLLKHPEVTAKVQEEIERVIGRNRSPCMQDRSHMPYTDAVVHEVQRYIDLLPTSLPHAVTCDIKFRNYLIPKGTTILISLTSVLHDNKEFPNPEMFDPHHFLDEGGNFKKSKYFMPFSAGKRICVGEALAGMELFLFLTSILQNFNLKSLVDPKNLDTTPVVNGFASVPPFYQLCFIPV
# Sequence of Luciferin 4-monooxygenase (P08659 whole entry): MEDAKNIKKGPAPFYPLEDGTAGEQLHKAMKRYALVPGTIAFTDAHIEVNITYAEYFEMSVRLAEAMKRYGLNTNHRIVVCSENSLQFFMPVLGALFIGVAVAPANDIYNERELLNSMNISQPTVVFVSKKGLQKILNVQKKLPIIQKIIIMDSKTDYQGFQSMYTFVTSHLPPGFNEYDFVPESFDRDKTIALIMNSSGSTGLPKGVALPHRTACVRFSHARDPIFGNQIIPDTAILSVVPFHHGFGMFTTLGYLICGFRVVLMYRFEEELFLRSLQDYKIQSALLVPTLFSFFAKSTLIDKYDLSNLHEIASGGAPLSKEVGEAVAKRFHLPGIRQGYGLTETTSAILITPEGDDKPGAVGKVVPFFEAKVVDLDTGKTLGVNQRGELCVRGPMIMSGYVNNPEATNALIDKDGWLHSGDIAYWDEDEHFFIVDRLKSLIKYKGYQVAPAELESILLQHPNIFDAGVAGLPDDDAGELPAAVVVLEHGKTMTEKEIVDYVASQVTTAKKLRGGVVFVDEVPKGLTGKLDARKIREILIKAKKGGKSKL
# Sequence of Cytochrome P450 2D6 (P10635 whole entry): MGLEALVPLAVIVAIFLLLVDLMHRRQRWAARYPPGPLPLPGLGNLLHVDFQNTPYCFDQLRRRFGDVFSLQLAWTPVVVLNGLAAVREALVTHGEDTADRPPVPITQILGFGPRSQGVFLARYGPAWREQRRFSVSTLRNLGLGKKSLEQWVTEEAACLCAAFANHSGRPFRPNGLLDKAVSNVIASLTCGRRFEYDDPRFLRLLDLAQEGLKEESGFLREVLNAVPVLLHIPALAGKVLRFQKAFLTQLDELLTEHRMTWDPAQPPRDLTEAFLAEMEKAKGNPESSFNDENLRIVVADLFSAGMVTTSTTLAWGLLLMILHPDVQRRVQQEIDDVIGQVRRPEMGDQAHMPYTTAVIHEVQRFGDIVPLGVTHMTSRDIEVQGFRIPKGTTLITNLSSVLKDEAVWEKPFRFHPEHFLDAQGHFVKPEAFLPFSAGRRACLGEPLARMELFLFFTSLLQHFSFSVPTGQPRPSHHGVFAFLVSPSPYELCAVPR
compound,measurement,setting,value
c1nc(CCO[C@H]2CCCCO2)cc2cc3c(cc12)OCO3,AC50,[1],2.56 µM (active)
same,AC50,[2],3.45 µM (active)
CC(C)C1NC(=S)N(Cc2ccccc2)C1=O (stereo unspecified),AC50,Cytochrome P450 1A2,20 µM (inconclusive)
O=S(=O)(O)c1ccc2c(/N=N\c3cccc4ccccc34)c(O)c(S(=O)(=O)O)cc2c1,AC50,Cytochrome P450 1A2,5.01 µM (inconclusive)
CCOc1cc(CNCCCN2CCOCC2)cc(Br)c1OCc1ccccc1Cl,EC50,[3],4.22 µM (active)
same,EC50,[4],> 120 µM (not active)
same,EC50,[5],> 120 µM (not active)
same,EC50,[6],> 120 µM (not active)
same,AC50,[7],11 µM (active)
same,EC50,[8],12 µM (active)
same,EC50,[9],0.539 µM (active)
same,AC50,[10],9.31 µM (active)
same,AC50,[11],19.3 µM (active)
CCN(Cc1ccccc1)c1ccc(/C=N/N2CCOCC2)cc1,IC50,[12],63.2 µM (active)
O=C(Nc1cnn(Cc2ccc(Cl)cc2)c1)c1ccc([N+](=O)[O-])cc1,AC50,Cytochrome P450 1A2,6.31 µM (inconclusive)
same,AC50,Cytochrome P450 2C19,2.24 µM (inconclusive)
same,AC50,Cytochrome P450 2C9,0.501 µM (inconclusive)
Oc1ccc(CCNCc2cc3c(cc2Br)OCO3)cc1,AC50,Cytochrome P450 1A2,1 µM (inconclusive)
same,AC50,Cytochrome P450 3A4,3.98 µM (inconclusive)
N/C(=N\N=C\c1ccc(O)cc1)c1nonc1N,IC50,[12],23.4 µM (active)
same,EC50,[13],1.07 µM (active)
same,EC50,[14],0.334 µM (active)
same,EC50,[15],8.45 µM (active)
CC[N+](C)(CC)CCOC(=O)C1c2ccccc2Oc2ccccc21 [METHANTHELINE],AC50,Cytochrome P450 1A2,10 µM (inconclusive)
Cn1c(SCc2c(F)cccc2Cl)nc2c(c1=O)SCC2,CC50,[16],> 40 µM (active)
CC1(C(=O)Nc2cnc3ccccc3c2)CCN1C(=O)c1ccccc1CCc1ccccc1 (stereo unspecified),IC50,Protein skinhead-1,> 100 µM (inactive)
O=C1C(=Cc2ccccn2)CCc2ccccc21,IC50,Protein skinhead-1,43.7 µM (active)
O=C(c1cccc(F)c1)N1CCC2(CCCN(C(c3ccccc3)c3ccccc3)C2)CC1,AC50,Cytochrome P450 1A2,6.31 µM (inconclusive)
same,AC50,Cytochrome P450 2C19,5.01 µM (inconclusive)
same,AC50,Cytochrome P450 2D6,10 µM (inconclusive)
c1ccc(C2(Cn3ccc4ccccc43)OCCO2)cc1,IC50,Protein skinhead-1,> 100 µM (inactive)
same,AC50,INS1,40.2 µM (active)
O=C(O)c1cnc2c(ccc3ncc(C(=O)O)c(O)c32)c1O,AC50,Cytochrome P450 1A2,5.01 µM (inconclusive)
O=C(C[n+]1cccc(CNC(=O)c2ccc(OC(F)F)cc2)c1)Nc1ccc(SC(F)F)cc1,EC50,[3],7.5 µM (active)
same,IC50,[17],> 20 µM (inactive)
C[C@@H]1CN([C@@H](C)CO)S(=O)(=O)c2ccc(C#CC3(O)CCCC3)cc2O[C@H]1CN(C)C(=O)c1ccccc1,AC50,[18],4.33 µM (active)
CCCCCNC(=O)c1ccccc1SC,IC50,Protein skinhead-1,74.6 µM (inactive)
CCn1c2ccccc2c2cc(N)ccc21,IC50,[12],64.1 µM (active)
CCC(=O)N1CCCCN2[C@H](C1)[C@H](c1ccc(-c3cccnc3)cc1)[C@@H]2CO,AC50,[18],21.9 µM (active)
COc1ccccc1N=NNc1ccccc1OC,IC50,[12],90.3 µM (active)
COc1ccccc1NC(=O)N1CCCCN2[C@H](C1)[C@H](c1ccc(C#CC3CC3)cc1)[C@@H]2CO,AC50,[18],5.95 µM (active)
Nc1nc2ccccc2n1CCOc1ccccc1Cl,IC50,cells,23.8 µM (active)
same,CC50,[19],> 40 µM (active)
same,CC50,[16],20.6 µM (active)
CC(C)(C)NC(=O)CN(C(=O)CCC(=O)Nc1nccs1)c1cccc(C(F)(F)F)c1,IC50,Protein skinhead-1,> 100 µM (inactive)
O=C1CC2(CCCC2)CC(=O)N1CCCCNC[C@H]1COc2ccccc2O1,AC50,Cytochrome P450 1A2,79.4 µM (inconclusive)
